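How tested: cells in 96-well plates exposed to compound for 48 hours at five concentrations. The concentration for 50% growth inhibition is given as GI50.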 Active and inactive are the calls of the source. Rule as the data show it: active = GI50 up to about 1.1 µM and inactive = higher.
Experiments:
Assay in all cases: NCI anticancer screen, dose series, 48 h
[1] = test system: SF-268
[2] = test system: HT-29
[3] = test system: SK-MEL-2
[4] = test system: LOX IMVI
[5] = test system: HL-60
[6] = test system: NCI-H23
[7] = test system: SK-MEL-5
[8] = test system: SF-539
[9] = test system: 786-0
[10] = test system: HCC 2998
[11] = test system: UACC-257
[12] = test system: HOP-92
[13] = test system: KM12
[14] = test system: TK-10
[15] = test system: SK-OV-3
[16] = test system: HOP-62
[17] = test system: RPMI-8226
[18] = test system: M14

SMILES | GI50 [1] | GI50 [2] | GI50 [3] | GI50 [4] | GI50 [5] | GI50 [6] | GI50 [7] | GI50 [8] | GI50 [9] | GI50 [10] | GI50 [11] | GI50 [12] | GI50 [13] | GI50 [14] | GI50 [15] | GI50 [16] | GI50 [17] | GI50 [18]
CC1=CCC23C(C1)OC(Br)(C=CC2(C)O)C3(C)C (stereo not given) | > 100 µM (inactive) | > 100 µM (inactive) | > 100 µM (inactive) | > 100 µM (inactive) | > 100 µM (inactive) | > 100 µM (inactive) | > 100 µM (inactive) | > 100 µM (inactive) | > 100 µM (inactive) | > 100 µM (inactive) | > 100 µM (inactive) | > 100 µM (inactive) | > 100 µM (inactive) | > 100 µM (inactive) | – | – | – | –
N#Cc1c(-c2ccccc2)c(-c2ccccc2)cc2c(=O)c3ccc(Cl)cc3[nH]c12 | > 100 µM (inactive) | > 100 µM (inactive) | > 100 µM (inactive) | – | > 100 µM (inactive) | > 100 µM (inactive) | – | > 100 µM (inactive) | > 100 µM (inactive) | > 100 µM (inactive) | > 100 µM (inactive) | > 100 µM (inactive) | – | > 100 µM (inactive) | > 100 µM (inactive) | > 100 µM (inactive) | > 100 µM (inactive) | –
CCOC(=O)NC/C=C/COC1CCCCO1 (stereo not given) | > 100 µM (inactive) | – | > 100 µM (inactive) | – | > 100 µM (inactive) | – | > 100 µM (inactive) | > 100 µM (inactive) | > 100 µM (inactive) | > 100 µM (inactive) | > 100 µM (inactive) | – | > 100 µM (inactive) | > 100 µM (inactive) | > 100 µM (inactive) | > 100 µM (inactive) | > 100 µM (inactive) | > 100 µM (inactive)
C[N+](C)(C)CC(=O)NC(=O)N/N=C\C(CC#N)CN(Cc1ccccc1)Cc1ccccc1 (stereo not given) | > 100 µM (inactive) | > 100 µM (inactive) | > 100 µM (inactive) | > 100 µM (inactive) | > 100 µM (inactive) | > 100 µM (inactive) | > 100 µM (inactive) | > 100 µM (inactive) | > 100 µM (inactive) | 66.4 µM (inactive) | > 100 µM (inactive) | – | > 100 µM (inactive) | > 100 µM (inactive) | > 100 µM (inactive) | > 100 µM (inactive) | – | > 100 µM (inactive)
COc1ccc(C(=C(C#N)C#N)c2ccc(OC)cc2)cc1 | > 100 µM (inactive) | > 100 µM (inactive) | > 100 µM (inactive) | > 100 µM (inactive) | > 100 µM (inactive) | > 100 µM (inactive) | – | > 100 µM (inactive) | > 100 µM (inactive) | > 100 µM (inactive) | > 100 µM (inactive) | – | > 100 µM (inactive) | > 100 µM (inactive) | – | > 100 µM (inactive) | > 100 µM (inactive) | > 100 µM (inactive)
CC(=O)OC1CC2CCN3C(=O)c4cc5c(cc4[C@H](C1OC(C)=O)C23)OCO5 (stereo not given in full) | > 100 µM (inactive) | > 100 µM (inactive) | – | > 100 µM (inactive) | > 100 µM (inactive) | > 100 µM (inactive) | – | > 100 µM (inactive) | > 100 µM (inactive) | > 100 µM (inactive) | > 100 µM (inactive) | – | > 100 µM (inactive) | > 100 µM (inactive) | > 100 µM (inactive) | > 100 µM (inactive) | > 100 µM (inactive) | > 100 µM (inactive)
O=C1CC[C@H](NC(=O)Cc2ccccc2)C(=O)N1 [ANTINEOPLASTON A10] | > 1250 µM (inactive) | > 1250 µM (inactive) | > 1250 µM (inactive) | > 1250 µM (inactive) | > 1250 µM (inactive) | > 1250 µM (inactive) | – | > 1250 µM (inactive) | > 1250 µM (inactive) | > 1250 µM (inactive) | > 1250 µM (inactive) | – | > 1250 µM (inactive) | > 1250 µM (inactive) | > 1250 µM (inactive) | > 1250 µM (inactive) | > 1250 µM (inactive) | > 1250 µM (inactive)
CN(C)CCNC(=O)c1cc2ccccc2c2nc3ccccc3nc12 | 0.0617 µM (active) | 0.536 µM (active) | 1.37 µM (inactive) | 0.413 µM (active) | – | 1.17 µM (inactive) | 1.79 µM (inactive) | 0.845 µM (active) | 2.43 µM (inactive) | 1.1 µM (active) | 1.45 µM (inactive) | – | 0.804 µM (active) | 1.23 µM (inactive) | 4.97 µM (inactive) | 2.39 µM (inactive) | 0.522 µM (active) | 1.75 µM (inactive)
N#Cc1ccc(Cc2ccccn2)cc1Cl | > 100 µM (inactive) | > 100 µM (inactive) | > 100 µM (inactive) | > 100 µM (inactive) | > 100 µM (inactive) | > 100 µM (inactive) | > 100 µM (inactive) | > 100 µM (inactive) | > 100 µM (inactive) | – | > 100 µM (inactive) | > 100 µM (inactive) | > 100 µM (inactive) | > 100 µM (inactive) | > 100 µM (inactive) | > 100 µM (inactive) | – | –
Cc1cc([N+](=O)[O-])c(C)c2c1[nH]c1ccc(O)cc12 | > 100 µM (inactive) | > 100 µM (inactive) | > 100 µM (inactive) | 61.5 µM (inactive) | 16.2 µM (inactive) | > 100 µM (inactive) | > 100 µM (inactive) | > 100 µM (inactive) | 39.4 µM (inactive) | > 100 µM (inactive) | > 100 µM (inactive) | – | > 100 µM (inactive) | > 100 µM (inactive) | – | > 100 µM (inactive) | 11.1 µM (inactive) | > 100 µM (inactive)
O=C1[C@@H]2C3c4ccccc4C([C@@H]2C(=O)N1c1ccccc1)S3(=O)=O | 38.9 µM (inactive) | > 100 µM (inactive) | > 100 µM (inactive) | 47.2 µM (inactive) | > 100 µM (inactive) | > 100 µM (inactive) | > 100 µM (inactive) | > 100 µM (inactive) | 55.8 µM (inactive) | > 100 µM (inactive) | > 100 µM (inactive) | > 100 µM (inactive) | > 100 µM (inactive) | > 100 µM (inactive) | > 100 µM (inactive) | – | > 100 µM (inactive) | > 100 µM (inactive)
CN(C)/N=N/c1ccccc1 | > 100 µM (inactive) | > 100 µM (inactive) | > 100 µM (inactive) | – | > 100 µM (inactive) | > 100 µM (inactive) | > 100 µM (inactive) | > 100 µM (inactive) | > 100 µM (inactive) | 38.1 µM (inactive) | – | > 100 µM (inactive) | 12.7 µM (inactive) | > 100 µM (inactive) | > 100 µM (inactive) | – | > 100 µM (inactive) | > 100 µM (inactive)
Cc1ccc(/N=N/C(C(=O)c2ccccc2)C(=O)c2ccccc2)cc1 | 29.8 µM (inactive) | 22 µM (inactive) | 19.5 µM (inactive) | – | 9.08 µM (inactive) | 20.5 µM (inactive) | 17.7 µM (inactive) | 22.4 µM (inactive) | 16.7 µM (inactive) | 38.3 µM (inactive) | 29.4 µM (inactive) | 13.6 µM (inactive) | 36.1 µM (inactive) | 41.4 µM (inactive) | 47.1 µM (inactive) | 21.1 µM (inactive) | 16.9 µM (inactive) | 15.7 µM (inactive)

— ChEMBL document CHEMBL1201862, “PubChem BioAssay data set” (2004)
